Results: patent publication US10940126B2, “Inhibition of IL-8 in the treatment of pain and/or bone loss” (priority 2015, dated 2021)
“Also recorded” adds a separate entry of the source.

Tests used:
mice [1] = test: Mechanical hypersensitivity: von Frey filaments, 50% withdrawal threshold of hind paws; type: in vivo
osteoclasts = test: Osteoclast activation under IL-8 receptor blockade; details: blockade of IL-8 receptors
mice [2] = test: Cold sensitivity, acetone drop on hind paw; type: in vivo; details: mice i.v. monoclonal ACPA D10 and B2; reparixin 30 mg/kg/day s.c. six days; day 19
Experimental: To assess sensitivity to cold, the mice were placed in the same testing device as used for detection of mechanical hypersensitivity. After habituation, a 1 ml syringe was used to gently apply a drop of acetone to the plantar surface of the hind paw and the duration of the nocifensive behavior (lifting, shaking, biting, and licking the paw) was recorded. The test was repeated three times on each paw and the average was calculated.

ankle joints and tibia = test: Joint histology and micro-CT (synovitis, bone erosion, cartilage); type: in vivo; details: mice
mice [3] = test: Heat sensitivity, modified Hargreaves box; type: in vivo; details: mice i.v. monoclonal ACPA D10 and B2; reparixin 30 mg/kg/day s.c. six days; tested day 26
Description: Heat sensitivity was examined using a modified Hargreaves box ([…]. et al., 1997). Mice were placed individually in Plexiglas cubicles on the glass surface and allowed to habituate. A radiant heat stimulus was then applied from below to a hind paw until a motion sensor detects a brisk withdrawal and stops the stimulus. Elapsed time is automatically recorded with a cutoff at 20 seconds. Three measurements from each paw were averaged and presented as latency (in seconds) for the withdrawal.

CXCR2 = molecular target: T1, CXCR2 (Homo sapiens, UniProt P25025); details: relative to SB225002; cited from earlier work
T1 sequence (P25025 1-360): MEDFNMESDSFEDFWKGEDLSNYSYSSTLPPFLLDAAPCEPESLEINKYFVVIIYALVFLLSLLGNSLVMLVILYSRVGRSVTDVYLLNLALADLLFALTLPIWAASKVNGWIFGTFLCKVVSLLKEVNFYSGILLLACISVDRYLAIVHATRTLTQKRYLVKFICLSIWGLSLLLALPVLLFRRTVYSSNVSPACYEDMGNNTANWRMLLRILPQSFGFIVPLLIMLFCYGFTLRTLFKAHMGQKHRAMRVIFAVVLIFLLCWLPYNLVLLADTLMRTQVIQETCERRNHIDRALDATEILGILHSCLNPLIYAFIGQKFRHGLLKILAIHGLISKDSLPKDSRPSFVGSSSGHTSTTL

[4] = cited from earlier work
[5] = tested on: Cxcl1, Cxcl2 and other inflammatory factor mRNA; test: Quantitative real-time PCR of ankle joint and plantar paw skin mRNA; type: in vivo, mice; details: hD10/B02 mAb 1 mg each; zoledronate 100 ug/kg
Experimental: Ankle joints and plantar paw skin of the hind legs were processed for gene expression analysis. Muscle and tendons were removed from ankle joints, which were then snap frozen and pulverized. Tissues were sonicated in TRIzol (Invitrogen) and RNA was extracted according to manufacturer's protocol. After complementary DNA (cDNA) synthesis, quantitative real-time PCR (Applied Biosystems) was performed using hydrolysis probes to determine the relative messenger RNA (mRNA) levels. Primers for chemokines Ccl2 (MCP1, Mm00441242_m1), Cxcl1 (Mm04207460_m1), Cxcl2 (Mm00436450_m1), Cxcl5 (Mm00436451_g1), inflammatory cytokines Tnf (Mm00443258_m1), Il1b (Mm00434228_m1), Il6 (Mm00446190_m1), mast cell proteases Mcpt4 (Mcp4, Mm00487636-g1), Tpsb2 (Mcp6, Mm01301240-g1), pro-inflammatory enzyme Cox2 (Mm00478374_m1), matrix metallo proteases Mmp2 (Mm00439498_m1), Mmp9 (Mm00442991_m1), Mmp13 (Mm00439491-m1), and reference gene Hprt1 (Mm01545399_m1) (all from Applied Biosystems) were used to determine threshold cycle values to calculate the number of cell equivalents in each sample with the standard curve method. Data was normalized to Hprt1 values and expressed as relative expression units (REU).

RA synovial fibroblasts = details: cited from earlier work
[6] = in vivo; cited from earlier work
neutrophil recruitment = details: cited from earlier work
[7] = mice injected with hG09 or hC03, thresholds at baseline, 1.5, 3 and 6 hours

NCC1(CC(=O)O)CCCCC1 [gabapentin]
Pain measured as withdrawal threshold, effect of painkiller (mice [1]; [7]): apparent lack of effect; also recorded: no detectable effect on pain

CC(C)Cc1ccc([C@@H](C)C(=O)NS(C)(=O)=O)cc1 [reparixin, (2R)-2-[4-(2-methylpropyl)phenyl]-N-methylsulfonylpropanamide]
Activation of osteoclasts (osteoclasts): blocks the activation of osteoclasts
ACPA-induced sensitivity to cold, effect of treatment (mice [2]): attenuated sensitivity to cold
Bone destruction induced by injected ACPA (ankle joints and tibia): completely reversed
ACPA-induced mechanical hypersensitivity, effect of treatment (mice [1]; mice i.v. monoclonal ACPA D10 and B2 (1 mg each), reparixin 30 mg/kg/day s.c. six consecutive days starting day 6, vs saline controls): partially reversed
Tactile thresholds in naive mice (mice [1]; naive mice not injected with ACPAs, treatment for six days): did not affect tactile thresholds
Pain measured as withdrawal threshold, effect of treatment (mice [1]; pain induced by human monoclonal ACPA hC03 (hG09 control), reparixin 30 mg/kg once a day starting day 1): attenuating effects
ACPA-induced heat hypersensitivity, effect of treatment (mice [3]): partially reversed

O=C(O)Cc1ccccc1Nc1c(Cl)cccc1Cl [diclofenac]
Pain measured as withdrawal threshold, effect of painkiller (mice [1]; mice injected with hC03 and hB09G09, diclofenac 30 mg/kg, observed during 6 hours): apparent lack of effect

O=C(Nc1ccc(Cl)c(S(=O)(=O)N2CCNCC2)c1O)Nc1cccc(F)c1Cl [SB656933, 1-(2-chloro-3-fluorophenyl)-3-(4-chloro-2-hydroxy-3-piperazin-1-ylsulfonylphenyl)urea]
Potency as CXCR2 antagonist (CXCR2): same potency as SB225002
Tolerability in clinical trials ([4]; human, in vivo): well tolerated at all doses

CC[C@@H](Nc1c(Nc2cccc(C(=O)N(C)C)c2O)c(=O)c1=O)c1ccc(C)o1 [SCH527123, 2-hydroxy-N,N-dimethyl-3-[[2-[[1(R)-(5-methyl-2-furanyl)propyl]amino]-3,4-dioxo-1-cyclobuten-1-yl]amino]benzamide]
Adverse events in clinical trials ([4]; human, in vivo): no treatment-induced adverse events were observed
Severe asthma ([4]; oral, clinical trials): modest improvement
Sputum neutrophils ([4]; oral, clinical trials): reduction in sputum neutrophils

COc1ccc2cc([C@H](C)C(=O)O)ccc2c1 [naproxen]
Pain measured as withdrawal threshold, effect of painkiller (mice [1]; [7]): apparent lack of effect; also recorded: no detectable effect on pain

O=P(O)(O)C(O)(Cn1ccnc1)P(=O)(O)O [zoledronate]
ACPA-induced increase of CXCL1 mRNA in the ankle joint [5]: efficiently prevented
ACPA induced pain measured as withdrawal threshold, effect of osteoclast inhibitor (mice [1]; hD10/hB02 mAb 1 mg each, zoledronate for 10 days): dose-dependent effect; also recorded: dose dependent effect

epigallocatechin-3-gallate [EGCG]
Induction of IL-8 production (RA synovial fibroblasts): inhibited the induction of IL-8 production

C[C@@H](C(N)=O)c1ccc(OS(=O)(=O)C(F)(F)F)cc1 [DF2162, 4-[(1R)-2-amino-1-methyl-2-oxoethyl]phenyl trifluoromethane sulfonate]
Results in pre-clinical studies of adjuvant-induced polyarthritis and bleomycin-induced pulmonary inflammation and fibrosis [6]: promising results
CXCL1 and carrageenan-induced pain-like behavior (neutrophil recruitment; mice): blocked
Neutrophil recruitment induced by injection of CXCL1 or carrageenan to the paw (neutrophil recruitment; mice): inhibits neutrophil recruitment
Nociceptor sensitization (neutrophil recruitment; mouse, in vivo): does not directly affect nociceptor sensitization

C[C@H](CO)Nc1nc(SCc2cccc(F)c2F)nc2[nH]c(=O)sc12 [AZD-8309, 5-[[(2,3-Difluorophenyl)methyl]thio]-7-[[(1R)-2-hydroxy-1-methylethyl]amino]-thiazolo[4,5-d]pyrimidin-2(3H)-one]
Tolerability in clinical trials ([4]; human, in vivo): well tolerated
